Patent US8350032B2, “Integrated photoactive agents for real-time monitoring of hemostasis” (MediBeacon Development, LLC, priority 2007, dated 2013)

Tested on: production of thrombin via activation of the extrinsic cascade (tissue factor pathway)
Test: whole blood activity screen: inhibition of thrombin production when clotting is activated via the tissue factor pathway (extrinsic cascade)
Format: biochemical
Conditions: nine concentrations, in triplicate, FIG. 4
Procedure: The compound (MP3117) of Example 1 was tested for its ability to inhibit the production of thrombin via activation of the extrinsic cascade. In particular, an assay that included a whole blood activity screen was performed. In this regard, nine aqueous solutions containing varying concentrations of the compound of Example 1 were tested for their ability to inhibit thrombin production when clotting was activated via the tissue factor pathway (in triplicate). The data from the assay was also utilized to extract the IC50 for the compound. Incidentally, “IC50” refers to the amount of a compound necessary to inhibit 50% of the active enzyme to which it binds.

Question: `N=C(N)c1ccc(CNC(=O)c2nc(N)c(C(=O)NCc3ccc(C(=N)N)cc3)nc2N)cc1` [Example 1, 3,6-diamino-N2,N5-bis(4-carbamimidoylbenzyl)pyrazine-2,5-dicarboxamide] was tested. Which IC50 did it give?
Answer: Its IC50 is 12.4 ± 0.79 nM.
